Results from patent US7119229B2 (priority 2001, dated 2006).
Like-named read-outs stand apart in the source and are kept apart here.

Legend:
[1] = tested on: MES-SA/DX5 (adriamycin resistant cell strain); test: SRB cytotoxicity assay, MES-SA/DX5; type: cell-based; conditions: Homo sapiens, MES-SA/Dx5, 72 h, read-out: ED50 MES-SA/DX5
Experimental: (§1) Human tumor cells, including MCF-7 (human breast adenomatous tumor), MCF-7/DOX (adriamycin resistant cell strain), MRS-SA (human uterine sarcoma), MES-SA/DX5 (adriamycin resistant cell strain), A 549 (human non-small cell lung), SKOV-3 (human ovarian), SKMEL-2 (human melanoma), XF-498 (human CNS), HCT-15 (human colon) were incubated at 37° C. in the presence of 5% CO2 using a DMEM culture medium. The respective cells were seeded into each well of 96-well plates at a concentration of 2×10^3˜5×10^3 cells/well. […] Each cell line of the resultant plates was fixed with trichloroacetic acid (TCA), stained with 0.4% SRB solution and rinsed with 1% acetic acid. Thereafter, the dye was dissolved in 10 mM Tris base to measure the optical density (OD) at 520 nm.

[2] = tested on: BALB/c mouse spleen cells, B cells activated with lipopolysaccharide (LPS); test: Immunosuppressive effect test using BALB/c mouse spleen cells, LPS (B cells); type: cell-based; conditions: 20 μg/ml lipopolysaccharide, 72 hours, MTS, FIGS. 2 and 3
Experimental: (§2) This test was carried out to determine the immunosuppressive effect of an immunosuppressive candidate material by checking anti-proliferation of T cells and B cells. To identify the proliferation inhibitory extent, responding cells (BALB/c mouse spleen cells) were treated with an immunosuppressive candidate material, lipopolysaccharide (LPS) as a B cell activator and concanvalin A (ConA) as a T cell activator. It is known that the responding cells treated with LPS induce proliferation of B cells and those treated with ConA induce proliferation of T cells.
(§3) Responding cells (BALB/c mouse spleen cells) were seeded into each well of 96-well plates at a concentration of 2×10^5 cells/well. […] After culturing for 72 hours at a CO2 incubator, a 20 μl MTS solution was added to each well, followed by further culturing for 2 to 4 hours and measuring OD at 490 nm using ELISA.

[3] = tested on: TA1537; test: Reverse mutation assay (Ames test), TA1537
Experimental: (§4) This assay is carried out to test mutagenicity of chemical substances using histidine auxotrophic strains that are one of Salmonella Typhimurium mutants. […] When various mutagens are added to the culture medium, only revertants generated by reverse mutation survive.
(§5) Ames test was carried out using […]. […] After incubation, the number of revertant colonies was counted. 3 plates were prepared for each test and the average was calculated.

[4] = tested on: SKOV-3 (human ovarian); test: SRB cytotoxicity assay, SK-OV-3; type: cell-based; conditions: 72 hours, read-out: ED50 SK-OV-3
Experimental: as §1

[5] = tested on: ICR mice; test: Acute (intravenous administration) toxicity assay; conditions: for Days for the test (death) Total: deaths/mice
[6] = tested on: ICR mice; test: Oral administration toxicity assay; conditions: for Days for the test (death) Total: deaths/mice
[7] = tested on: MES-SA (human uterine sarcoma); test: SRB cytotoxicity assay, MES-SA; type: cell-based; conditions: 72 h, read-out: ED50 MES-SA
Experimental: as §1

[8] = tested on: HCT-15 (human colon); test: SRB cytotoxicity assay, HCT15; type: cell-based; conditions: HCT-15, 72 h, read-out: ED50 HCT15
Experimental: as §1

[9] = tested on: BALB/c mouse spleen cells, T cells activated with concanvalin A (ConA); test: Immunosuppressive effect test using BALB/c mouse spleen cells, ConA (T cells); type: cell-based; conditions: 2 μg/ml of ConA, 72 hours, MTS, FIGS. 2 and 3
Experimental: as §2, §3

[10] = tested on: WP2 uvrA strains (tryptophan auxotrophic strains); test: Reverse mutation assay (Ames test), E. coli WP2 uvrA
Experimental: as §4, §5

[11] = tested on: MCF-7 (human breast adenomatous tumor); test: SRB cytotoxicity assay, MCF7; type: cell-based; conditions: MCF7, 72 h, read-out: ED50 MCF7
Experimental: as §1

[12] = tested on: TA100
Experimental: as §4, §5

[13] = tested on: TA98
Experimental: as §4, §5

[14] = tested on: TA1535; conditions: TA1525 (so in the source)
Experimental: as §4, §5

[15] = tested on: MCF-7/DOX (adriamycin resistant cell strain); test: SRB cytotoxicity assay, MCF-7/DOX; type: cell-based; conditions: Homo sapiens, MCF7-DOX, 72 h, read-out: ED50 MCF-7/DOX
Experimental: as §1

COc1cc2c(c(OC)c1OC)-c1ccc(OC)c(=O)cc1[C@@H](NC(=O)c1cccc(CO[N+](=O)[O-])c1)CC2 [Compound 6, 3-nitrooxymethyl-N-(1,2,3,10-tetramethoxy-9-oxo-5,6,7,9-tetrahydro-benzo[a]heptarene-7-yl)-benzamide]
EC50 [1]: 773 nM | anti-proliferation of B cells [2]: remarkable anti-proliferous effect | Colony/Plate S-9 Mixture (+) ([3]; TA1537, 317.5 μg/Plate): 11 Colony/Plate | Colony/Plate S-9 Mixture (−) ([3]; TA1537, 317.5 μg/Plate): 8 Colony/Plate | Colony/Plate S-9 Mixture (+) ([3]; TA1537, 625 μg/Plate): 16 Colony/Plate | Colony/Plate S-9 Mixture (−) ([3]; TA1537, 625 μg/Plate): 10 Colony/Plate | Colony/Plate S-9 Mixture (+) ([3]; TA1537, 1250 μg/Plate): 13 Colony/Plate | Colony/Plate S-9 Mixture (−) ([3]; TA1537, 1250 μg/Plate): 16 Colony/Plate | Colony/Plate S-9 Mixture (+) ([3]; TA1537, 2500 μg/Plate): 17 Colony/Plate | Colony/Plate S-9 Mixture (−) ([3]; TA1537, 2500 μg/Plate): 11 Colony/Plate | Colony/Plate S-9 Mixture (+) ([3]; TA1537, 5000 μg/Plate): 14 Colony/Plate | Colony/Plate S-9 Mixture (−) ([3]; TA1537, 5000 μg/Plate): 7 Colony/Plate | EC50 [4]: 0.2 nM | Days for the test (death) Total ([5]; 5 mg/kg): 0/5 | Days for the test (death) Total ([5]; 10 mg/kg): 0/5 | Days for the test (death) Total ([5]; 25 mg/kg): 0/2 | Days for the test (death) 1 ([5]; 50 mg/kg, day 1): 3 | Days for the test (death) Total ([5]; 50 mg/kg): 3/3 | Days for the test (death) Total ([6]; 2 mg/kg): 0/5 | Days for the Test (death) 4 ([6]; 5 mg/kg, day 4): 1 | Days for the test (death) Total ([6]; 5 mg/kg): 1/5 | Days for the test (death) 2 ([6]; 10 mg/kg, day 2): 1 | Days for the Test (death) 3 ([6]; 10 mg/kg, day 3): 1 | Days for the test (death) Total ([6]; 10 mg/kg): 2/5 | EC50 [7]: 0.2 nM | EC50 [8]: 0.1 nM | anti-proliferation of T cells [9]: remarkable anti-proliferous effect | Colony/Plate S-9 Mixture (+) ([10]; 317.5 μg/Plate): 12 Colony/Plate | Colony/Plate S-9 Mixture (−) ([10]; 317.5 μg/Plate): 16 Colony/Plate | Colony/Plate S-9 Mixture (+) ([10]; 625 μg/Plate): 12 Colony/Plate | Colony/Plate S-9 Mixture (−) ([10]; 625 μg/Plate): 9 Colony/Plate | Colony/Plate S-9 Mixture (+) ([10]; 1250 μg/Plate): 12 Colony/Plate | Colony/Plate S-9 Mixture (−) ([10]; 1250 μg/Plate): 10 Colony/Plate | Colony/Plate S-9 Mixture (+) ([10]; 2500 μg/Plate): 9 Colony/Plate | Colony/Plate S-9 Mixture (−) ([10]; 2500 μg/Plate): 8 Colony/Plate | Colony/Plate S-9 Mixture (+) ([10]; 5000 μg/Plate): 13 Colony/Plate | Colony/Plate S-9 Mixture (−) ([10]; 5000 μg/Plate): 11 Colony/Plate | EC50 [11]: 0.02 nM | Colony/Plate S-9 Mixture (+) ([12]; TA100, 317.5 μg/Plate): 96 Colony/Plate | Colony/Plate S-9 Mixture (−) ([12]; TA100, 317.5 μg/Plate): 81 Colony/Plate | Colony/Plate S-9 Mixture (+) ([12]; TA100, 625 μg/Plate): 84 Colony/Plate | Colony/Plate S-9 Mixture (−) ([12]; TA100, 625 μg/Plate): 77 Colony/Plate | Colony/Plate S-9 Mixture (+) ([12]; TA100, 1250 μg/Plate): 81 Colony/Plate | Colony/Plate S-9 Mixture (−) ([12]; TA100, 1250 μg/Plate): 84 Colony/Plate | Colony/Plate S-9 Mixture (+) ([12]; TA100, 2500 μg/Plate): 77 Colony/Plate | Colony/Plate S-9 Mixture (−) ([12]; TA100, 2500 μg/Plate): 88 Colony/Plate | Colony/Plate S-9 Mixture (+) ([12]; TA100, 5000 μg/Plate): 78 Colony/Plate | Colony/Plate S-9 Mixture (−) ([12]; TA100, 5000 μg/Plate): 79 Colony/Plate | Colony/Plate S-9 Mixture (+) ([13]; TA98, 317.5 μg/Plate): 32 Colony/Plate | Colony/Plate S-9 Mixture (−) ([13]; TA98, 317.5 μg/Plate): 21 Colony/Plate | Colony/Plate S-9 Mixture (+) ([13]; TA98, 625 μg/Plate): 29 Colony/Plate | Colony/Plate S-9 Mixture (−) ([13]; TA98, 625 μg/Plate): 32 Colony/Plate | Colony/Plate S-9 Mixture (+) ([13]; TA98, 1250 μg/Plate): 33 Colony/Plate | Colony/Plate S-9 Mixture (−) ([13]; TA98, 1250 μg/Plate): 24 Colony/Plate | Colony/Plate S-9 Mixture (+) ([13]; TA98, 2500 μg/Plate): 22 Colony/Plate | Colony/Plate S-9 Mixture (−) ([13]; TA98, 2500 μg/Plate): 22 Colony/Plate | Colony/Plate S-9 Mixture (+) ([13]; TA98, 5000 μg/Plate): 23 Colony/Plate | Colony/Plate S-9 Mixture (−) ([13]; TA98, 5000 μg/Plate): 19 Colony/Plate | Colony/Plate S-9 Mixture (+) ([14]; 317.5 μg/Plate): 14 Colony/Plate | Colony/Plate S-9 Mixture (−) ([14]; 317.5 μg/Plate): 14 Colony/Plate | Colony/Plate S-9 Mixture (+) ([14]; 625 μg/Plate): 12 Colony/Plate | Colony/Plate S-9 Mixture (−) ([14]; 625 μg/Plate): 18 Colony/Plate | Colony/Plate S-9 Mixture (+) ([14]; 1250 μg/Plate): 11 Colony/Plate | Colony/Plate S-9 Mixture (−) ([14]; 1250 μg/Plate): 15 Colony/Plate | Colony/Plate S-9 Mixture (+) ([14]; 2500 μg/Plate): 11 Colony/Plate | Colony/Plate S-9 Mixture (−) ([14]; 2500 μg/Plate): 10 Colony/Plate | Colony/Plate S-9 Mixture (+) ([14]; 5000 μg/Plate): 9 Colony/Plate | Colony/Plate S-9 Mixture (−) ([14]; 5000 μg/Plate): 13 Colony/Plate | EC50 [15]: 205 nM
